Source: patent publication US20050176735A1, “Polymorphs of zaleplon and methods for the preparation thereof” (priority 2000, published 2005)

Experiments:
[1] = Solid-state stability on storage at controlled temperature and relative humidity or on heating; conditions: for Stability on storage (form conversion): about 60° C. and about 75% relative humidity; for Stability on heating (form conversion): heated at about 80° C.
[2] = Moisture adsorption/desorption isotherm (moisture balance); type: physicochemical; conditions: for Hygroscopicity from moisture adsorption/desorption curves: 25° C., 5 to 95% relative humidity
Description: Moisture adsorption; desorption data were collected on a VTI SGA-100 moisture balance system. available from VTI Corporation of Hialeah, Fla. For adsorption isotherms an adsorption range of 5 to 95% relative humidity and a desorption range of 95 to 5% relative humidity in 10% relative humidity increments were used for analysis. The samples were not dried prior to analysis. Equilibrium criteria used for analysis were less than 0.0100 weight percent change in 5 minutes with a maximum equilibration time of 3 hours if the weight criterion was not met. Data were not corrected for the initial moisture content of-the samples.

[3] = Relative solubility in water

Structure (SMILES) | Relative stability versus the other forms ([1]; absence of water) | General stability to humidity and temperature ([1]; broad range of humidity and temperature conditions) | Hygroscopicity from moisture adsorption/desorption curves [2] | Stability on storage ([1]; about 40° C. and about 75% relative humidity for 4 weeks) | Stability on storage (form conversion) ([1]; 4 weeks (same time period)) | Stability on heating (form conversion) [1] | Solubility in water relative to the other form [3] | Form conversion in solvent (solvent system containing an organic solvent and optionally water) | Form conversion in water (water) | Stability on storage of hydrates (form conversion) ([1]; about 40° C. and about 75% relative humidity, time not stated) | Stability on storage (form conversion) ([1]; time not stated) | Relative stability in aqueous and non-aqueous environments (aqueous and non-aqueous environments) | Relative humidity up to which the form is generally anhydrous ([2]; relative humidity)
CCN(C(C)=O)c1cccc(-c2ccnc3c(C#N)cnn23)c1 [Form I, N-[3-(3-cyanopyrazolo[1,5a]pyrimidin-7-yl)phenyl]-N-ethylacetamide] | more stable than Forms II and III | stable | non-hygroscopic |  |  |  |  |  |  |  |  |  | 
CCN(C(C)=O)c1cccc(-c2ccnc3c(C#N)cnn23)c1 [Form II, N-[3-(3-cyanopyrazolo[1,5a]pyrimidin-7-yl)phenyl]-N-ethylacetamide] |  |  | moisture content of Form II of zaleplon varies depending on the relative humidity of its environment | stable | converts into Form I | converts into Form I | mole soluble in water than Form III | converts into Form III | converted into Form III |  |  |  | 
CCN(C(C)=O)c1cccc(-c2ccnc3c(C#N)cnn23)c1 [Form III, N-[3-(3-cyanopyrazolo[1,5a]pyrimidin-7-yl)phenyl]-N-ethylacetamide] |  |  |  |  |  | converts to Form I |  |  |  | resulting in a mixture of Forms II and III | converts to Form I | more stable in aqueous and non-aqueous environments than Form II | about 30%
